Laboratory results published in patent publication US10519504B2, “Methods for treatment of oncological disorders using epimetabolic shifters, multidimensional intracellular molecules, or environmental influencers” (Berg LLC, priority 2009, dated 2019).

Assays:
ATP Citrate Lyase (ACL) = assay: Western blot, ATP Citrate Lyase levels; type: cell-based, human; conditions: for ATP Citrate Lysase Normalized Intensity as % of control: glucose 5g, 48 h
Protocol: The whole cell pellets were resuspended one at a time in 1 mL of C7 buffer and transferred to labeled 15 mL tubes. The samples were then sonicated in the cold room on ice using 6 sonic pulses with the setting at #14. The samples were spun for a short time to 2500 g after sonication and the samples transferred to 2 ml tubes. The pH was verified of each sample (pH should be 9.0) using the foam remaining in the […] sample tubes.
After transfer each of the blots was placed in between 2 Whatman Filter papers and dried for 15-20 minutes. After drying the blots were labeled with the date, the type of samples and either blot 1 or blot 2 using a HB pencil. The molecular weight markers were outlined with the pencil and with single lines for the blue and a doublet for the colored markers. The blots were activated with methanol for 5 seconds, washed with water for 5 minutes, and TBST for 15 minutes. The blots were blocked for 1 hour with 5% blocking reagent in TBS-T at room temperature and then washed 3 times with TBS-T (1X−15′; 2X5′ each). Blot 1 was probed with the primary antibody for IDH1 (Cell Signaling #3997) in TBST with 5% BSA (at 1:1000 dilutions) and blot 2 with the rabbit polyclonal antibody for ATP Citrate Lyase in 5% BSA (Cell Signaling #4332) at 1:1000 dilution by incubation overnight at 4 deg C. with shaking. After the overnight incubation with primary antibodies, the blots were washed 3 times with TBS-T (1X−15′; 2X5′ each) and probed with the secondary antibody (antirabbit; 1:10,000 dilution) for 1 h on the orbital tilting shaker at room temperature. After 1 h of incubation with secondary antibodies, the blots were washed 3 times with TBS-T (1X−15′; 2X5′ each) and then incubated with ECF reagent for 5 mins and then each blot scanned with 5100 Fuji Laser scanner at 25 uM resolution, 16 bit, green laser, at 400V and at 500 V.
The samples were processed and run on a 4-12% Bis-Tris Novex NuPAGE gel as described above. The gels were run, transferred and stained essentially as described above.
The Isocitrate dehydrogenase blot was stripped by incubating for 30 minutes with methanol, followed by two 10 minute washes with TBS-T, then 30 minutes of incubation with stripping buffer at 50 deg C., and followed by two washes with 100 ml or more of TBS-T for 30′ each. The blot was scanned in laser scanner to check for complete stripping. The blot was activated with methanol for 5 seconds, washed with water for 5 minutes, and TBST for 15 minutes. The blot was blocked for 1 hour with 5% blocking reagent in TBS-T at room temperature and then washed 3 times with TBS-T (1X−15′; 2X5′ each). This was then probed with the rabbit polyclonal antibody for ATP Citrate Lyase in 5% BSA (Cell Signaling #4332) at 1:1000 dilution overnight at 4 deg C. with shaking. After the overnight incubation with primary antibody for ATP Citrate Lyase, the membrane was washed 3 times with TBS-T (1X−15′; 2X5′ each) and probed with the secondary antibody (antirabbit; 1:10,000 dilution) for 1 h on the orbital tilting shaker at room temperature. After 1 h of incubation with secondary antibodies, the blot was washed 3 times with TBS-T (1X−15′; 2X5′ each) and then incubated with ECF reagent for 5 minutes and then each blot scanned with 5100 Fuji Laser scanner at 25 uM resolution, 16 bit, green laser, at 400V and at 500 V.
In this experiment (western blot experiment 3), and in all of the experiments described below in this Example (i.e., western blot experiments 4 through 9), the cells were additionally treated with either 5 mM glucose (“5G”) or 22 mM glucose (“22G”). The samples derived from the cells were processed and run on a 4-12% Bis-Tris Novex NuPAGE gel as described above. The gels were run, transferred and stained essentially as described above.
The levels of IDH1, ATP citrate lyase and actin levels were determined by probing the blots with primary antibodies for IDH1, ATP citrate lyase and actin, essentially as described above.

[1] = tested on: Pancreatic Cancer Cells (PaCa2); assay: Real-time PCR Angiogenesis Array; type: cell-based
Protocol: (§1) Experiments were carried out essentially as described above.

[2] = tested on: Pancreatic Cancer Cells (PaCa2); assay: Real-time PCR Apoptosis Array; type: cell-based
Protocol: as §1

[3] = tested on: HAEC, MCF-7, HepG2 and PC-3 cell lines; assay: OCR and ECAR, SeaHorse XF analyzer (data not shown); type: cell-based, human; conditions: absence and/or presence of stressors (hyperglycemia, hypoxia, lactic acid)
Protocol: (SeaHorse Biosciences Inc, North Billerica, Mass.).
A similar comparison of OCR and ECAR values (data not shown) were determined in numerous other normal and cancer cells lines, including: HAEC (normal human aortic endothelial cells), MCF-7 (breast cancer), HepG2 (liver cancer) and highly metastatic PC-3 (prostate cancer) cell lines. […] Thus, the overall effect of CoQ10 in the treatment of cancer, including cell death, is an downstream effect of its collective influence on proteomic, genomic, metabolomic outcomes in concert with shifting of the cellular bioenergetics from glycolysis to mitochondrial OXPHOS.

SCC cells [4] = assay: Real-time PCR Diabetes Array; type: cell-based
Description: (§2) The control cells were untreated cells.

SCC cells [5] = assay: Real-time PCR Heat Shock Protein Array; type: cell-based
Description: as §2
Heat Shock Arrays were run for SCC cells and the data of regulated genes is summarized below in Table 13.

[6] = rats; Bhagavan et al.; cited from earlier work
[7] = 100 μM Q10, Down regulated at 6 hours

COC1=C(OC)C(=O)C(C/C=C(\C)CC/C=C(\C)CC/C=C(\C)CC/C=C(\C)CC/C=C(\C)CC/C=C(\C)CC/C=C(\C)CC/C=C(\C)CC/C=C(\C)CCC=C(C)C)=C(C)C1=O [Q10, Coenzyme Q10]
ATP Citrate Lysase Normalized Intensity as % of control (ATP Citrate Lyase (ACL); HepG2, 50 uM): 85 % of control
ATP Citrate Lysase Normalized Intensity as % of control (ATP Citrate Lyase (ACL); HepG2, 100 uM): 79 % of control
ATP Citrate Lysase Normalized Intensity as % of control (ATP Citrate Lyase (ACL); PACA2, 50 uM): 68 % of control
ATP Citrate Lysase Normalized Intensity as % of control (ATP Citrate Lyase (ACL); PACA2, 100 uM): 42 % of control
expression of ACL (ATP Citrate Lyase (ACL); cancer cells): dose-dependent decrease in the expression of ACL enzymes
expression of ACL (ATP Citrate Lyase (ACL); normal cells): trend towards increased expression of ACL
angiogenesis array genes (AKT1, ANGPTL4 ... VEGFA, VEGFB as listed) ([1]; 100 uM Q10): modulated by Q10 treatment
genes from the angiogenesis array whose expression is regulated ([1]; 100 μM Q10, genes: ANGPTL4, CDH5, FGF1, AKT1, ANPEP, CCL2, CXCL1, EDG1, EFNB2, EGF, ILIB, IL8, KDR, NRP1, PECAM1, PROK2, SPHK1, STAB1, VEGFA): A list of genes from the angiogenesis array whose expression is regulated
apoptosis array genes (ABL1, AKT1, Bcl2L1 ... TNFSF10 as listed) ([2]; 100 uM Q10): modulated by Q10 treatment
genes from the apoptosis array whose expression is regulated ([2]; 100 μM Q10, genes: CASP1, CASP6, TNF, TNFSF10, ABL1, AKT1, BclAF1, Bcl2L1, CASP2, CIDEA, FADD, LTA, TNFSF10A): A list of genes from the apoptosis array whose expression is regulated
OCR and ECAR values [3]: shift in OCR and ECAR values representative of values observed in a normal cells under normal physiological conditions
TNFRSF1A Regulation (SCC cells [4]; 100 μM Q10, at 6 and 24 hours): Down regulated at 6
G6PD Regulation (SCC cells [4]; 100 μM Q10, at 6 hours): Down regulated at 6
ICAM1 Regulation (SCC cells [4]; 100 μM Q10, at 6 hours): Down regulated at 6
INPPL1 Regulation (SCC cells [4]; 100 μM Q10, at 6 hours): Down regulated at 6
NOS3 Regulation (SCC cells [4]; 100 μM Q10, at 6 hours): Down regulated at 6
PIK3CD Regulation (SCC cells [4]; 100 μM Q10, at 6 hours): Down regulated at 6
PPARA Regulation (SCC cells [4]; 100 μM Q10, at 6 hours): Down regulated at 6
PYGL Regulation (SCC cells [4]; 100 μM Q10, at 6 hours): Down regulated at 6
SREBF1 Regulation (SCC cells [4]; 100 μM Q10, at 6 hours): Down regulated at 6
STXBP2 Regulation (SCC cells [4]; 100 μM Q10, at 6 hours): Down regulated at 6
TNF Regulation (SCC cells [4]; 100 μM Q10, at 6 hours): Down regulated at 6
VEGFA Regulation (SCC cells [4]; 100 μM Q10, at 6 hours): Down regulated at 6
DNAJB5 Regulation (SCC cells [5]; [7]): Down
DNAJB13 Regulation (SCC cells [5]; [7]): Down
DNAJC4 Regulation (SCC cells [5]; [7]): Down
DNAJC5B Regulation (SCC cells [5]; [7]): Down
DNAJC12 Regulation (SCC cells [5]; [7]): Down
CCT6B Regulation (SCC cells [5]; 100 μM Q10, Down regulated at 24 hours): Down
DNAJA1 Regulation (SCC cells [5]; 100 μM Q10, at 6 hours): Up regulated
HSPA8 Regulation (SCC cells [5]; 100 μM Q10, at 6 hours): Up regulated
HSPH1 Regulation (SCC cells [5]; 100 μM Q10, at 6 hours): Up regulated
orally-administered CoQ10 absorbed [6]: 2-3%
